Experimental data as given in PubChem BioAssay (NCI).
Several values for one entry are separate records, joined by “and”; a condition that tells them apart may be missing. Equal values may be shown once.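 Dose response: 5 concentrations. Exposure: 48 h. Format: 96-well plates. Endpoint: linear interpolation; highest concentration if not reached. GI50 is the concentration that inhibits growth by half. The concentration for full growth arrest is given as TGI.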

Legend:
Experiment in all cases: NCI tumour cell line growth inhibition, 48 h
[1] = system: CAKI-1 renal
[2] = system: CCRF-CEM leukemia
[3] = system: HCT-116 colon
[4] = system: HOP-62 NSCLC
[5] = system: NCI-H226 lung
[6] = system: NCI-H23 lung
[7] = system: NCI-H460 lung
[8] = system: SF-295 CNS
[9] = system: SNB-75 CNS
[10] = system: TK-10 renal

Row | SMILES | GI50 [1] | TGI [1] | GI50 [2] | TGI [2] | GI50 [3] | TGI [3] | GI50 [4] | TGI [4] | GI50 [5] | TGI [5] | GI50 [6] | TGI [6] | GI50 [7] | TGI [7] | GI50 [8] | TGI [8] | GI50 [9] | TGI [9] | GI50 [10] | TGI [10]
1 | Nc1ncnc2c1nc(N)n2C1OC(CO)C(O)C1O (stereo not drawn) | 0.318 µM | 1.59 µM | 1.3 µM | > 22.9 µM | 0.302 µM | 10.5 µM | 0.311 µM | 2.71 µM | 1.03 µM | 3.38 µM | 0.309 µM | 2.23 µM | 0.454 µM | 1.93 µM | 1.78 µM | 6.09 µM | 1.88 µM | 3.7 µM | 0.458 µM | –
2 | Cc1ccc2nc3sc(=O)sc3nc2c1 | – | 30 µM | – | > 100 µM | – | 30.9 µM | – | 30.6 µM | – | 27.9 µM | – | 42.5 µM | – | 26.6 µM | – | 31 µM | – | 64.8 µM | – | 30 µM
3 | CC(C)(C)C1CCC(CI)(N=[N+]=[N-])CC1 (stereo not drawn) | – | > 100 µM | – | > 100 µM | – | > 100 µM | – | > 100 µM | – | > 100 µM | – | > 100 µM | – | > 100 µM | – | > 100 µM | – | > 100 µM | – | > 100 µM
4 | O=C1c2cccc3cccc(c23)C(=O)N1CC#Cc1ccc2c3c(cccc13)C(=O)N(CCN1CCNCC1)C2=O | 2.72 µM | 10.5 µM | 2.01 µM | 5.06 µM | 2.12 µM | 4.79 µM | 5.09 µM | 30.1 µM | 20.3 µM | 52.3 µM | 2.38 µM | 5.74 µM | 1.92 µM | 3.6 µM | 17.5 µM | 33.8 µM | 4.49 µM | 19.9 µM | 2.61 µM | 7.54 µM
5 | O=c1c2cc(Br)ccc2[nH]c(=S)n1-c1ccccc1 | – | > 100 µM | – | > 100 µM | – | > 100 µM | – | > 100 µM | – | > 100 µM | – | > 100 µM | – | > 100 µM | – | > 100 µM | – | > 100 µM | – | > 100 µM
6 | CCN1CCN(CC(=O)Nc2nc3ccc(NCc4ccc(C)cc4)cc3s2)CC1 | 3.48 µM | 10.5 µM | 1.49 µM | 6.3 µM | 1.53 µM | 5.32 µM | 2.02 µM | 8.03 µM | 7.77 µM | 18.8 µM | 5.91 µM | 13.9 µM | 2.12 µM | 7.71 µM | 2.4 µM | 9.06 µM | 2.69 µM | 9.42 µM | 7.54 µM | 15.1 µM
7 | COC(=O)c1c2c(c(C)[n+]([O-])c1C)C(=O)C=C(NCc1ccc(Br)cc1)C2=O | 0.0597 µM | 1.64 µM | 0.669 µM | – | 0.173 µM | 0.667 µM | 1.05 µM | 2.47 µM | 1.3 µM | 2.98 µM | 0.721 µM | 3.32 µM | 0.431 µM | 1.99 µM | 0.242 µM | 1.32 µM | 1.58 µM | 2.94 µM | 2.27 µM | 5.88 µM
8 | O=[N+]([O-])c1ccc(Oc2cccc(C(F)(F)F)c2)c([N+](=O)[O-])c1 | 3.08 µM | 21.5 µM | 0.296 µM | 3.18 µM | 1.24 µM | 12.7 µM | 4.01 µM | 16.1 µM | 2.11 µM | 5.92 µM | 2.15 µM | 12 µM | 3.1 µM | 10.2 µM | 2.87 µM | 11.3 µM | 5.11 µM | 37.9 µM | 3.54 µM | 9.33 µM
9 | COc1ccc(/C=c2\sc3nnc(CCC(=O)Nc4cccc(C(F)(F)F)c4)n3c2=O)cc1 | – | > 100 µM | – | 90.3 µM | – | > 100 µM | – | > 100 µM | – | > 100 µM | – | > 100 µM | – | > 100 µM | – | > 100 µM | – | > 100 µM | – | > 100 µM
10 | O=C1NC(=O)C(N2CCc3ccccc32)=C1c1ccc(Cl)cc1 | > 25 µM | > 25 µM | > 25 µM | > 25 µM | > 10.2 µM | > 16.6 µM | > 25 µM | > 25 µM | > 25 µM | > 25 µM | > 11.4 µM | > 25 µM | > 25 µM | > 25 µM | > 25 µM | > 25 µM | > 25 µM | > 25 µM | > 25 µM | > 25 µM
11 | NS(=O)(=O)c1cccc(-c2cc3ccncc3cc2OCc2ccccc2)c1 | 10.6 µM | > 25 µM | 8.43 µM | > 25 µM | 10.1 µM | > 25 µM | 11.6 µM | > 25 µM | 9.03 µM | > 25 µM | > 18.4 µM | > 25 µM | 11.7 µM | > 25 µM | 6.55 µM | > 17.7 µM | 3.23 µM | > 25 µM | 9.77 µM | > 25 µM
12 | Cc1cc(Br)c2nsnc2c1[N+](=O)[O-] | 1.6 µM | 3.26 µM | 2.16 µM | 5.44 µM | 1.77 µM | 3.63 µM | 4.59 µM | 16.3 µM | 7.13 µM | 19.2 µM | 1.9 µM | 3.9 µM | 3.15 µM | 10.7 µM | 2.96 µM | 12.1 µM | 3.46 µM | 15.4 µM | 3.72 µM | 12.4 µM
13 | CC1=C(C(=O)Nc2cccc(C(F)(F)F)c2)C(c2ccccc2F)C(C(=O)Nc2cccc(C(F)(F)F)c2)=C(C)N1 | – | 25 µM | – | 12.4 µM | – | 13.5 µM | – | 26.2 µM | – | 18.4 µM | – | 17 µM | – | 21.8 µM | – | 20.3 µM | – | 79.6 µM | – | 25.7 µM
14 | Nc1cccc2c1CN(C1CCC(=O)NC1=O)C2=O (stereo not drawn) | > 100 µM | > 100 µM | > 100 µM | > 100 µM | > 100 µM | > 100 µM | > 100 µM | > 100 µM | > 100 µM | > 100 µM | > 100 µM | > 100 µM | > 100 µM | > 100 µM | > 100 µM | > 100 µM | > 100 µM | > 100 µM | > 100 µM | > 100 µM
15 | O=C1c2ccccc2C(=O)c2c(NCCNCCO)ccc(NCCNCCO)c21 | 2.31 µM and 2.42 µM and 4.94 µM | 45.2 µM and > 45.9 µM and > 100 µM | 0.156 µM and 0.461 µM and 0.264 µM | 14.6 µM and 11.1 µM | 0.715 µM and 0.908 µM and 0.934 µM | 6.79 µM and 6.81 µM and 11.2 µM | 0.422 µM and 0.473 µM and 0.509 µM | 4.19 µM and 3.82 µM and 4.76 µM | 0.232 µM and 0.281 µM and 0.47 µM | 2.24 µM and 3.35 µM and 5.4 µM | 0.94 µM and 1.43 µM and 1.22 µM | 4.54 µM and 8.5 µM and 5.81 µM | 0.127 µM and 0.158 µM and 0.189 µM | 1.91 µM and 3.38 µM and 2.16 µM | 0.416 µM and 0.655 µM and 0.89 µM | 4.47 µM and 9.66 µM and 9.97 µM | 0.649 µM and 0.473 µM and 0.386 µM | 3.43 µM and 2.52 µM and 2.46 µM | 2.89 µM and 2.55 µM and 1.33 µM | 24.6 µM and 22.5 µM and 8.88 µM
